Test results: patent publication US7534590B2, “Method for producing monatin” (AJINOMOTO Co., Inc., priority 2003, dated 2009)
Entries after “also recorded” stand apart in the source; their conditions may differ.

Assays:
[1] = pH stability of IHOG in amination reaction solution (without microbial cells); format: physicochemical
Protocol: [I] pH Stability of IHOG in Amination Reaction Solution
In order to examine the stability of IHOG in the IHOG amination solution, change of IHOG amounts with time in an IHOG amination solution was measured without adding the microbial cells. A test tube containing 1 mL of the reaction solution composed of 100 mM potassium phosphate buffer (pH 8.3), 300 mM (±)-IHOG, 600 mM DL-Ala and 1 mM pyridoxal-5′-phosphate was shaken at 37° C. for 40 hours, to perform the reaction. […] This is presumed to be attributed to the decomposition of IHOG into indole-3-pyruvic acid and pyruvic acid and the cyclization of IHOG.

[2] = pH stability of IHOG in buffer; format: physicochemical; conditions: 0.54 mM IHOG, 40 mM potassium phosphate buffer, 35° C.
Protocol: [II] pH Stability of IHOG in Buffer
The survival rate of IHOG (0.54 mM) was measured in 40 mM potassium phosphate buffer at different pH. The storage temperature was adjusted to 35° C.

[3] = stability in strongly acidic or strongly alkaline solution to be treated; format: physicochemical; conditions: for stability in strongly acidic solution: strongly acidic region
From the text: The value of pH in the solution to be treated may be 2 to 12, more preferably 7 to 11 and particularly preferably 8 to 9.
When the solution to be treated is strongly acidic or alkaline and contains IHOG, IHOG is decomposed and can not be recovered. […] This cyclization is an irreversible reaction, and therefore, it is difficult to regenerate the cyclized IHOG to reuse for the monatin production.

[4] = cited from earlier work; for sweetness potency: relative to sucrose

For `O=C(O)C(=O)CC(O)(Cc1c[nH]c2ccccc12)C(=O)O` (racemic) [IHOG, 4-(indol-3-ylmethyl)-4-hydroxy-2-oxoglutaric acid], the “Survival rate of IHOG” value ([1]; 100 mM potassium phosphate buffer pH 8.3, 300 mM (±)-IHOG, 600 mM DL-Ala, 1 mM pyridoxal-5'-phosphate, 37° C., after 16 hours) was 81%, the “Survival rate of IHOG” value ([1]; same amination solution pH 8.3, 37° C., after 24 hours) was 70% and the “Survival rate of IHOG” value ([1]; same amination solution pH 8.3, 37° C., after 40 hours) was 57%. The “Survival rate of IHOG” value ([2]; pH 7, 2 hr) was 97.4%, the “Survival rate of IHOG” value ([2]; pH 7, 7 hr) was 90.0% and the “Survival rate of IHOG” value ([2]; pH 7, 24 hr) was 68.4%. The “Survival rate of IHOG” value ([2]; pH 7, 48 hr) was 45.6%, the “Survival rate of IHOG” value ([2]; pH 8, 2 hr) was 100.6% and the “Survival rate of IHOG” value ([2]; pH 8, 7 hr) was 100.1%. For the same compound, the “Survival rate of IHOG” value ([2]; pH 8, 24 hr) was 96.4%, the “Survival rate of IHOG” value ([2]; pH 8, 48 hr) was 89.6% and the “Survival rate of IHOG” value ([2]; pH 9, 2 hr) was 100.6%. The “Survival rate of IHOG” value ([2]; pH 9, 7 hr) was 101.1%, the “Survival rate of IHOG” value ([2]; pH 9, 24 hr) was 99.0% and the “Survival rate of IHOG” value ([2]; pH 9, 48 hr) was 94.4%. The “Survival rate of IHOG” value ([2]; pH 10, 2 hr) was 97.0%, the “Survival rate of IHOG” value ([2]; pH 10, 7 hr) was 96.8% and the “Survival rate of IHOG” value ([2]; pH 10, 24 hr) was 94.2%. The “Survival rate of IHOG” value ([2]; pH 10, 48 hr) was 90.8%, the “Survival rate of IHOG” value ([2]; pH 11, 2 hr) was 95.6% and the “Survival rate of IHOG” value ([2]; pH 11, 7 hr) was 90.7%. The “Survival rate of IHOG” value ([2]; pH 11, 24 hr) was 74.8%, the “Survival rate of IHOG” value ([2]; pH 11, 48 hr) was 59.3% and the “stability in strongly acidic solution” value [3] was “easily cyclized”. The “stability in strongly alkaline solution” value ([3]; strongly alkaline solution) was “easily decomposed into indole-3-pyruvic acid and pyruvic acid spontaneously”.

In the case of `N[C@H](C[C@](O)(Cc1c[nH]c2ccccc12)C(=O)O)C(=O)O` (single isomer, unassigned) [(2R, 4R)-isomer], the “sweetness rank among four optical isomers of monatin” value ([4]; comparison of the monatin isomers, listed as (2R, 4R)-monatin) is listed as “the isomer having the highest sweetness among four optical isomers of monatin; also recorded: highest sweetness potency among monatin isomers” and the sweetness potency [4] is listed as “hundreds of times to thousands of times stronger than sucrose”.

For `N[C@H](C[C@@](O)(Cc1c[nH]c2ccccc12)C(=O)O)C(=O)O` (single isomer, unassigned) [(2R, 4S)-isomer], the sweetness potency [4] is listed as “hundreds of times to thousands of times stronger than sucrose”.

In the case of `N[C@@H](C[C@](O)(Cc1c[nH]c2ccccc12)C(=O)O)C(=O)O` (single isomer, unassigned) [(2S, 4R)-isomer], the sweetness potency [4] is listed as “hundreds of times to thousands of times stronger than sucrose”.

In the case of `NC(CC(O)(Cc1c[nH]c2ccccc12)C(=O)O)C(=O)O` (single isomer, unassigned) [(2S, 4S)-isomer], the sweetness potency [4] is given as “hundreds of times to thousands of times stronger than sucrose”.

In the case of `NC(CC(O)(Cc1c[nH]c2ccccc12)C(=O)O)C(=O)O` (centres unmarked) [Monatin], the sweetness potency [4] is given as “dozens to thousands of times stronger than that of sucrose” and the “stability in strongly acidic solution” value [3] is given as “partially decomposed into lactam and lactone”.
